The source made the active and inactive calls.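 Rule for the calls: active = IC50 at or below 10 µM; inactive = IC50 above 10 µM.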
The compounds below were run against tRNA 2'-phosphotransferase Tpt1 (Candida albicans SC5314) (assay: tRNA 2'-phosphotransferase enzyme inhibition potency – biochemical, fluorescence polarization, dose response, late-stage follow-up (AID 2838)). Conditions: recombinant caTpt1, RNase T1-coupled fluorescence polarization.

SMILES | IC50
CC1=C(C#N)C(=O)N(C2CCS(=O)(=O)C2)C(=O)/C1=C\c1ccco1 (centres undefined) | > 49.8 µM (inactive)
OC(Cn1cncn1)(Cn1cncn1)c1ccc(F)cc1F | > 49.8 µM (inactive)
NS(=O)(=O)c1cc(C(=O)NC2CCSc3ccccc32)ccc1Cl (centres undefined) | > 49.8 µM (inactive)
NC(=O)c1cc[n+](CC2=C(C(=O)O)N3C(=O)[C@@H](NC(=O)C(c4ccccc4)S(=O)(=O)O)[C@H]3SC2)cc1 (some centres undefined) | inactive

Source: PubChem BioAssay AID2838 (The Scripps Research Institute Molecular Screening Center, 2010)
